{"source": "patent US6008046A", "about": "“Drug and pesticide screening” (priority 1993, dated 1999)", "key": {"[1]": {"biological_target": "normal GABA receptor (wild-type Rdl, cDNA 14.1) (Drosophila melanogaster, UniProt P25123, I283V)", "sequence (P25123 other isoform, or with tags, fused parts or gaps I283V)": "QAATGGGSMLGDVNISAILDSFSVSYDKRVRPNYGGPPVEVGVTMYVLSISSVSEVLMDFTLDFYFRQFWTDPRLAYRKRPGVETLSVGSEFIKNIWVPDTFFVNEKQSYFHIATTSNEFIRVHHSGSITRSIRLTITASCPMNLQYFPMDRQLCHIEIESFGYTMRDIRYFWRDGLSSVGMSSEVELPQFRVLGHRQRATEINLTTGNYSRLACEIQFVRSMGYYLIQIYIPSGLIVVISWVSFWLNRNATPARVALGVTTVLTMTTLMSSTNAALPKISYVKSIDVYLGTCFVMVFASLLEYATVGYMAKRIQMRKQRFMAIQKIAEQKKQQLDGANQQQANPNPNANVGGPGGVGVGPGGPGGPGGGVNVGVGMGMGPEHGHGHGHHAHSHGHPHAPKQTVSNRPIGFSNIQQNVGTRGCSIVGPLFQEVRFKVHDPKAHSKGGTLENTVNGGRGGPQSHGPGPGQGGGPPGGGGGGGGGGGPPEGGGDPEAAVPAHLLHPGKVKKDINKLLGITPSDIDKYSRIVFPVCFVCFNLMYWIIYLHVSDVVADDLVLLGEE", "assay": "cell-based", "conditions": "for Reduction in GABA response (mean (s.d.)): xenopus oocytes", "procedure": "(§1) The cloning of cDNA's from the GABAA locus allows for functional expression of mRNA derived from this and other subunit cDNA templates in various cell types.\n(§2) In the Xenopus oocyte expression system, oocytes removed from ovaries of adult Xenopus are arrested at the first meiotic prophase. Because each oocyte is fairly large and has a large nucleus, it is technically easy to inject foreign DNA into the oocyte nucleus. Typically, 20-40 nl is injected through a finely drawn glass capillary. The endogenous Xenopus RNA polymerases transcribe this injected exogenous DNA. Mertz and Gurdon, Proc. Natl. Acad. Sci. USA 74:1502 (1977). The exogenous DNA is assembled into chromatin, but there is no replication of injected duplex DNA in the oocyte. Gargilo and Worcel, J. Mol. Biol., 170:699 (1983); Ryoji and Worcel, Cell 37:21 (1984). Single-stranded DNA (e.g., DNA obtained by cloning in M13 vectors), is converted to duplex form within the oocyte nucleus. The Xenopus oocyte also efficiently translates mRNA injected into its cytoplasm.\n(§3) Various studies have shown that this Xenopus expression system is feasible for expression of foreign DNA. Kreig and Melton, EMBO J 4:3464 (1985); Masu et al., Nature 329:836 (1987); Wilson et al., Cell 47:589 (1986); see also, Old and Primrose, Principles of Gene Manipulation, 4th ed. (Blackwell Scientific Publications, Oxford, 1989)(pp. 296-302).\n(§4) In the system of the present invention, messenger RNA produced from cDNA template, (both messenger RNA and cDNA template are considered to be part of the present invention), is injected into Xenopus eggs which then express the protein. By patch clamp electrophysiology experiments, one can then determine whether the cell is expressing the protein (measured by electrical impulses) and whether this expression can be altered by the compound of interest.\n(§5) Currents were recorded in 96 mM NaCl, 2 mM Kcl, 1.8 mM MgCl2, and 5 mM Hepes. Recordings were made 1-5 days after injection. […] Dieldrin was dissolved in DMSO (dimethylsulfoxide), then diluted to a final concentration of 0.1% DMSO. The single base pair substitution of GCG (alanine) to TCG (serine) was introduced into the sensitive cDNA 14.1 by subcloning in a restriction fragment from the insensitive cDNA. The region containing the mutation was then amplified by PCR from total embryonic RNA from Rdl^R-MD flies and subsequently digested with EcoRV and Acc1. This restriction fragment was then cloned into the sensitive cDNA 14.1 cut with the same enzymes to yield the Ala to Ser mutant construct.\n(§6) In order to test the effect of the resistance-associated Ala to Ser mutation, this substitution was introduced into the sensitive cDNA (as discussed above). […] Pharmacological comparisons were made using thirty oocytes injected with each type of RNA."}, "[2]": {"biological_target": "T1, mutant GABA receptor (Ala to Ser mutant Rdl) (Drosophila melanogaster, UniProt P25123, A301S/I283V)", "T1 construct": "expressed in transfected cells; host or cells: Xenopus oocytes injected with RNA derived from the Ala to Ser mutant of cDNA 14.1", "T1 sequence (P25123 other isoform, or with tags, fused parts or gaps I283V/A301S)": "as the sequence (P25123 other isoform, or with tags, fused parts or gaps I283V) above, with A257S counted along it", "assay": "Two-electrode voltage clamp of Xenopus oocytes expressing Ala to Ser mutant GABA receptor", "assay_type": "cell-based", "conditions": "for response of mutant channels to GABA and muscimol compared with wild-type channels: Ala to Ser mutant vs wild-type; for sensitivity of Ala>Ser mutant compared with wild-type: thirty oocytes with each type of RNA (FIGS. 10b-e); for Reduction in GABA response (mean (s.d.)): xenopus oocytes", "procedure": "as §1, §2, §3, §4, §5, §6"}, "[3]": {"system": "mutant GABA receptor (Ala to Ser mutant Rdl)", "assay": "Two-electrode voltage clamp of Xenopus oocytes expressing Ala to Ser mutant GABA receptor", "assay_type": "cell-based, Drosophila melanogaster", "procedure": "as §1, §2, §3, §4, §5, §6"}, "D. melanogaster [4]": {"system": "D. melanogaster", "conditions": "30 μg dieldrin, ffrench-Constant et al. 1990, cited from earlier work"}, "D. melanogaster [5]": {"system": "D. melanogaster", "assay": "Dieldrin contact bioassay, fly mortality in coated vials after 24 hours", "assay_type": "in vivo", "conditions": "for mortality at 0.03 mg: Drosophila melanogaster, 24 h, 30 μg dieldrin", "procedure": "More specifically, FIG. 2 depicts the crosses used to rescue cyclodiene insecticide susceptibility via P-element-mediated germline transformation. As depicted, embryos containing an endogenous source of transposase (Δ2,3) were injected with a cosmid carrying a susceptible copy of the gene and a copy of the mini-white eye color gene as a selectable marker. Successful G0 transformants with red eyes (w^+) were subsequently crossed into flies hemizygous for resistance and a deficiency uncovering the resistance gene Df(3L)29A6. These flies carrying the w^+ S insert (transferred DNA) are susceptible to a dose of 30 μg dieldrin, whereas their siblings without the insert are resistant to this dose.\nIn order to more precisely localize the gene within the 200 kb of DNA isolated from the 66F subregion, new chromosomal rearrangements were induced using γ irradiation and screened for those uncovering the resistance gene. Chromosomal rearrangements were generated by exposing male SS flies with multiply marked third chromosomes (rucuca strain) to 4,000 rads of radiation in a γ radiation (cesium) source, and then outcrossing these R/R (Rdl^R /Rdl^R) females. New rearrangements uncovering resistance were screened for by exposing their progeny at a dose of 30 μg dieldrin, at which only R/Df (Rdl^R /Df) flies will survive (all the expected RS progeny will die at this dose level except for any R/- flies wherein \"-\" is any new rearrangement uncovering the resistance gene), survivors were crossed to In(3LR)TM3/Sb and maintained as a balanced stock (Df/In(3LR)TM3).\nApproximately 50,000 flies were screened. For screening, 20 ml glass scintillation vials were coated internally with 30 μg of dieldrin in acetone and rolled until dry. Twenty to thirty flies per vial were added and mortality was recorded after 24 hours at 25° C..\nAs both of the cytologically visible rearrangements giving two new recombinant bands on a Southern with probes from cosmid 6 have only one breakpoint within 66F, this cluster of breakpoints which disrupts the gene must therefore mark its location. In order to determine whether cosmid 6 contained a functional copy of the gene for cyclodiene resistance, P-element germline transformation with this cosmid was carried out. Following successful isolation of a w^+ transformant, linkage to the insert to the second chromosome was established after crossing male G0 progeny to a stock bearing markers on the second and third chromosomes (FIG. 2). […]\nEntomol., 83:1733, (1990). […] These field-collected and isofemale strains were used in the initial identification of the resistance-associated mutation, but studies of linkage to other restriction-site markers in D. melanogaster were done with isochromsomal lines to ensure that only a single chromosome was being analyzed."}, "[6]": {"system": "larval central nerve cord of Rdl^R-MD", "conditions": "dieldrin, 10 μM concentration; Bloomquist et al. 1991; cited from earlier work"}, "chloride ion channels": {"system": "chloride ion channels", "conditions": "thiocyanate ions vs chloride; cited from earlier work"}, "[7]": {"system": "cultured Rdl^R-MD neurons", "assay": "Whole cell patch clamp of cultured Rdl^R-MD neurons", "assay_type": "cell-based, Drosophila melanogaster", "conditions": "PTX"}, "[8]": {"system": "PTX binding sites on the GABA receptor", "conditions": "cyclodiene-resistant vs susceptible strains; Matsumura et al. 1987; cited from earlier work"}, "[9]": {"conditions": "read-out: Reduction in GABA response (mean (s.d.))"}, "[10]": {"conditions": "wild-type mRNA, voltage clamped at -60 mV"}}, "note": "Structures can show the parent of a compound that is named as a salt. Where two headings read alike, the source gives them in different places."}
{"smiles": "C[N+]1(C)CCc2cc3c(cc2[C@H]1[C@@H]1OC(=O)c2c1ccc1c2OCO1)OCO3", "note": "[bicuculline, (-)-bicuculline methiodide]", "values": [{"measurement": "block of GABA-evoked currents by bicuculline", "setting": "[1]; bicuculline 100 μM with 10 μM GABA (FIG. 10a)", "value": "not blocked"}]}
{"smiles": "NCc1cc(=O)[nH]o1", "note": "[muscimol, muscimol hydrobromide]", "values": [{"measurement": "response of mutant channels to GABA and muscimol compared with wild-type channels", "setting": "[2]", "value": "apparently identical to the wild-type channels"}]}
{"smiles": "ClC1=C(Cl)[C@]2(Cl)[C@@H]3[C@@H]4C[C@@H]([C@H]5O[C@@H]45)[C@@H]3[C@@]1(Cl)C2(Cl)Cl", "note": "[dieldrin]", "values": [{"measurement": "loss of sensitivity conferred by the mutation", "setting": "[3]; dieldrin, from comparison of effects of lower doses", "value": "50-100 fold"}, {"measurement": "block of the GABA response, in words", "setting": "[2]; […] μM dieldrin, insensitive mutant cDNA (FIG. 10e)", "value": "little effect"}, {"measurement": "sensitivity of expressed chloride ion channels carrying the Ala to Ser mutation", "setting": "[2]; mutation of resistant D. melanogaster", "value": "insensitivity"}, {"measurement": "inhibition at 10 µM", "setting": "[2]; [9]", "value": 23, "unit": "%"}, {"measurement": "sensitivity of Ala>Ser mutant compared with wild-type", "setting": "[2]", "value": "consistently lower sensitivity"}, {"measurement": "Reduction in GABA response (mean (s.d.))", "setting": "[2]; 10 µM", "value": "12 (11) %"}, {"measurement": "solubility", "setting": "[1]; dissolved in DMSO, diluted to final 0.1% DMSO, concentration above 10 μM not possible", "value": "limited solubility"}, {"measurement": "inhibition at 10 µM", "setting": "[1]; [9]", "value": 78, "unit": "%"}, {"measurement": "inhibition at 10 µM", "setting": "[1]; read-out: block of the GABA response, 10 μM dieldrin, wild-type \"sensitive\" cDNA (FIG. 10c)", "value": "> 75", "unit": "%"}, {"measurement": "Reduction in GABA response (mean (s.d.))", "setting": "[1]; 10 µM", "value": "80 (6) %"}, {"measurement": "survival of RR flies", "setting": "D. melanogaster [4]; RR flies", "value": 85, "unit": "%"}, {"measurement": "kill of RS and SS genotypes", "setting": "D. melanogaster [4]; RS and SS flies", "value": "kills all RS and SS genotypes"}, {"measurement": "mortality at 0.03 mg", "setting": "D. melanogaster [5]; flies carrying the cosmid 6 insert (Rdl^R/Rdl^S), n=221", "value": 93, "unit": "%"}, {"measurement": "mortality at 0.03 mg", "setting": "D. melanogaster [5]; siblings without the insert (Rdl^R/Df(3L)29A6), n=214", "value": 7, "unit": "%"}, {"measurement": "susceptibility to 30 μg dieldrin, in words", "setting": "D. melanogaster [5]; flies carrying the w+ S insert", "value": "susceptible"}, {"measurement": "susceptibility to 30 μg dieldrin, in words", "setting": "D. melanogaster [5]; siblings without the insert", "value": "resistant"}, {"measurement": "sensitivity of larval central nerve cord of Rdl^R-MD", "setting": "[6]", "value": "Insensitivity"}]}
{"smiles": "NCCCC(=O)O", "note": "[GABA, γ-aminobutyric acid]", "values": [{"measurement": "response of mutant channels to GABA and muscimol compared with wild-type channels", "setting": "[2]", "value": "apparently identical to the wild-type channels"}, {"measurement": "recovery of response to GABA during washing", "setting": "[1]; after PTX or dieldrin, washed with saline 20 min, all experiments (wild-type and mutant)", "value": "at least 50%"}, {"measurement": "reversal potential of GABA-evoked currents", "setting": "[1]; wild-type mRNA", "value": "-20 to -25", "unit": "mv"}, {"measurement": "maximum current, lower end of range", "setting": "[1]; [10]", "value": 50, "unit": "nA"}, {"measurement": "maximum current, upper end of range", "setting": "[1]; [10]", "value": "> 5", "unit": "μA"}]}
{"smiles": "N#CS", "note": "[thiocyanate]", "values": [{"measurement": "permeation through chloride ion channels relative to chloride", "setting": "chloride ion channels", "value": "seven"}]}
{"smiles": "C=C(C)[C@@H]1[C@H]2OC(=O)[C@@H]1[C@]1(O)C[C@H]3O[C@]34C(=O)O[C@H]2[C@]14C", "note": "[PTX, Picrotoxinin]", "values": [{"measurement": "reduction in sensitivity induced by the mutation", "setting": "[3]; PTX, mutant vs wild-type oocytes", "value": "approximately 100 fold"}, {"measurement": "block of the GABA response, in words", "setting": "[2]; 1 μM PTX, Ala to Ser mutant (FIG. 10d)", "value": "little effect"}, {"measurement": "inhibition at 1 µM", "setting": "[2]; [9]", "value": 8, "unit": "%"}, {"measurement": "inhibition at 10 µM", "setting": "[2]; [9]", "value": 61, "unit": "%"}, {"measurement": "inhibition at 50 µM", "setting": "[2]; [9]", "value": 75, "unit": "%"}, {"measurement": "inhibition at 1 µM", "setting": "[2]; read-out: Reduction in GABA response (mean (s.d.)), Mutant, 1 μM PTX, oocytes with GABA EC50 […] μM, n = 6", "value": 8, "unit": "%"}, {"measurement": "sensitivity of Ala>Ser mutant compared with wild-type", "setting": "[2]", "value": "consistently lower sensitivity"}, {"measurement": "Reduction in GABA response (mean (s.d.))", "setting": "[2]; 10 µM", "value": "48 (6) %"}, {"measurement": "Reduction in GABA response (mean (s.d.))", "setting": "[2]; 50 µM", "value": "56 (6) %"}, {"measurement": "inhibition at 1 µM", "setting": "[1]; [9]", "value": 73, "unit": "%"}, {"measurement": "inhibition at 10 µM", "setting": "[1]; [9]", "value": 96, "unit": "%"}, {"measurement": "inhibition at 50 µM", "setting": "[1]; [9]", "value": 96, "unit": "%"}, {"measurement": "inhibition at 1 µM", "setting": "[1]; read-out: block of the GABA response, 1 μM PTX, wild-type \"sensitive\" cDNA (FIG. 10b)", "value": "> 70", "unit": "%"}, {"measurement": "Reduction in GABA response (mean (s.d.))", "setting": "[1]; 1 µM", "value": "78 (12) %"}, {"measurement": "Reduction in GABA response (mean (s.d.))", "setting": "[1]; 10 µM", "value": "90 (13) %"}, {"measurement": "Reduction in GABA response (mean (s.d.))", "setting": "[1]; 50 µM", "value": "97 (5) %"}, {"measurement": "reduction in sensitivity", "setting": "[7]", "value": "approximately 100 fold"}, {"measurement": "affinity for PTX of resistant strains relative to susceptibles", "setting": "[8]", "value": "one tenth"}]}
